# Marks after values point to notes of the source that are not given here.
# Key:
# [1] = tested on: ischemia-reperfusion rabbit; assay: Ischemia-reperfusion rabbit mortality; format: in vivo
# eNOS = assay: Western blot analysis for eNOS protein in ischemia-reperfusion rat heart; format: in vivo; settings: ischemia 25 min, reperfusion 2 h, 1.5 mg/kg at 5 min prior to reperfusion, P<0.05 vs vehicle
# Method: To elucidate the effects of the test compounds on the infarct size caused by regional myocardial ischemia and reperfusion, all animals were randomized into 8 study groups. The first group (Sham) comprised of animals not subjected to regional myocardial ischemia (25 min) followed by reperfusion (2 h) and treated with vehicle (1 ml/kg) 5 minutes prior to the onset of reperfusion. The second group of animals were subjected to regional myocardial ischemia (25 min) followed by reperfusion (2 h) and were treated with vehicle (saline, 1 ml/kg). […]
# Hearts were pulverized at −80° C. using liquid nitrogen and a stainless steel pestle and mortar. […] Total protein concentrations were determined using the Bradford method (Bio-Rad, UK). […] Signals were detected using the enhanced chemiluminescence (ECL™) detection system (Cell Signaling Technology, U.S.A.) and autoradiographic film. For quantification of protein expression all blots were reprobed for muscle α-actin expression using 1/2000 dilution of a mouse anti-human actin (muscle antibody (Serotec), followed by incubation with a goat anti-mouse HRP linked secondary antibody ( 1/2000 dilution) (DakoCytomation, Denmark). Densitometry analysis was performed on scanned images (Hewlett Packard Scanjet) and analyzed using Scion Image (Scion Corp, National Institutes of Health, Bethesda, Md.).
# MCAO rats = assay: Middle cerebral artery occlusion (MCAO) cerebral ischemia lesions in rats; format: in vivo, rat
# Text: The same effects of preventing the ischemia-reperfusion damages with aporphine and oxoaporphine compounds also found in the other organs, such as brain. After Compound 16 or Compound 21, which is a compound of Formula B (where R1, R2, R5, R6 are OMe, R3, R4, R7 are H) was administrated to male Sprague Dawley rats, the effects of test compounds on the artery occlusive cerebral ischemia in the rats were monitored. First, permanent brain ischemia was induced by middle cerebral artery occlusion (MCAO) in the rats. At 0, 6, 24, 48, and 54 hours after the formation of middle cerebral artery occlusion (MCAO), Group I (i.e., the control group) animals were given the solvent (100% DMSO) (1 ml/kg, i.p.); Group II (i.e., the control group) animals were given the distilled water (D.W.) (1 ml/kg, i.p.);Group III animals (NCM-121) were given Compound 16 (1.5 mg/kg, i.p.); Group IV animals (NCM-124) were given Compound 21 (1.7 mg/kg, i.p); Group V animals were given MK-801 (0.3 mg/kg, i.p.), an antagonist of the N-methyl-D-aspartic acid (NMDA) receptor. There were ten rats in each group. Four days after the formation of MCAO, all the rats were sacrificed. Brain sections were made and stained with 2% cresol purple. The areas and volumes of cerebral ischemia lesions in each section were recorded.
# [2] = Hemodynamic effects (blood pressure, heart rate) in rats; format: in vivo, rat
structure (smiles),measurement,setting,value
"COc1cc2c(cc1OC)-c1c(OC)c(OC)cc3c1C(C2)N(CCOc1ccccc1OC)CC3 (centres unmarked) [Compound 16, N-[2-(2-methoxyphenoxyl)]ethylnorglaucine]",Died at ischemia period,"[1]; 0.25 mg/kg, total 3, control 0 of 10",0
same,Died at reperfusion period,"[1]; 0.25 mg/kg, total 3, control 3 of 10",1
same,Mortality (%),"[1]; 0.25 mg/kg, total 3, control 30",33.3%
same,Died at ischemia period,"[1]; 2.5 mg/kg, total 6, control 0 of 10",0
same,Died at reperfusion period,"[1]; 2.5 mg/kg, total 6, control 3 of 10",0
same,Mortality (%),"[1]; 2.5 mg/kg, total 6, control 30",0%
same,reduction in eNOS protein expression caused by ischemia and reperfusion,eNOS,significantly reduced
same,Infarcted Volume (X ± SEM mm^3),"MCAO rats; IP 1.5 mg/kg × 6, N=10, four days after MCAO, vehicle 100% DMSO 154.17 ± 16.69",60.14 ± 24.49* mm^3
same,% Decrease in total volume of ischemic lesions,"MCAO rats; IP 1.5 mg/kg × 6, vs Group I vehicle (100% DMSO)",60.99%
same,effects in reducing the areas and volumes of cerebral ischemia lesions as compared with MK-801,MCAO rats; comparison in words,more significant effects
same,duration of blood pressure decrease,[2],about 45 minutes
same,effects on blood pressure,"[2]; 0.5 mg/kg to 50 mg/kg, FIG. 5A",no significant effects
same,effects on heart rate,"[2]; 0.5 mg/kg to 50 mg/kg, FIG. 5B",no significant effects
same,time to recovery of heart rates after drug application,[2]; 50 mg/kg,45 min
same,heart rates after drug,"[2]; 50 mg/kg, from 361.5±9.3 bpm, p<0.05",295.4±16.8 bpm
same,"heart rates, % of baseline values","[2]; 50 mg/kg, p<0.05",81.5±2.8 % of baseline values
same,mean blood pressure after drug,"[2]; at 3 minutes after drug administration, from 74.6±5.7 mmHg",62.9±2.2 mmHg
